Inhibition mode and IC50 data for 15 compounds are collected here from PMC8061081 (Fitoterapia, 2021).

Read-outs that look alike come from different tables or passages of the source.

The target of assay [1] is T1, SARS-CoV-2 3CL^pro (Severe acute respiratory syndrome coronavirus 2, UniProt P0DTD1). In words: Inhibition kinetics, determination of inhibition constants. In kind it is biochemical. Conditions: inhibition kinetic plots and Lineweaver-Burk plots.
Assay [2] addresses T1, SARS-CoV-2 3CL^pro. In words: biochemical.

As for `CCCCCCCCCCCCCCCc1cccc(O)c1C(=O)O` [GA C15:0], the Inhibition mode result at SARS-CoV-2 3CL^pro [1] was “reversible and mixed-inhibition”.

The compound `O=c1c(O)c(-c2ccc(O)cc2)oc2cc(O)cc(O)c12` [kaempferol] registered an IC50 against SARS-CoV-2 3CL^pro [2] greater than 100 µM.

On to `COc1ccc(-c2cc(=O)c3c(O)cc(O)c(-c4cc(-c5cc(=O)c6c(O)cc(O)cc6o5)ccc4OC)c3o2)cc1` [isoginkgetin], for which the concentration for half-maximal inhibition (IC50) against SARS-CoV-2 3CL^pro [2] was 2.33 ± 0.46 µM.

In the case of `CCCCCC/C=C\CCCCCCCCCc1cccc(O)c1C(=O)O` [GA C17:1], on SARS-CoV-2 3CL^pro [1], the Inhibition mode result was “reversible and mixed-inhibition”. Also, the IC50 against SARS-CoV-2 3CL^pro [2] (pH 7.4) is 1.19 ± 0.15 µM.

In turn, `COc1ccc(-c2cc(=O)c3c(O)cc(O)cc3o2)cc1-c1c(O)cc(O)c2c(=O)cc(-c3ccc(O)cc3)oc12` [bilobetin] gave an IC50 against SARS-CoV-2 3CL^pro [2] of 11.2 ± 2.41 µM.

Take `C[C@@H]1O[C@@H](Oc2c(-c3ccc(O)c(O)c3)oc3cc(O)cc(O)c3c2=O)[C@H](O)[C@H](O)[C@H]1O` [quercitrin]: the IC50 against SARS-CoV-2 3CL^pro [2] was greater than 100 µM.

In the case of `CCCCCCCCCCCCCc1cccc(O)c1C(=O)O` [GA C13:0], the concentration for half-maximal inhibition (IC50) against SARS-CoV-2 3CL^pro [2] (pH 7.4) came out at 3.57 ± 0.9 µM.

On to `COc1cc(O)c2c(=O)cc(-c3ccc(OC)c(-c4c(O)cc(O)c5c(=O)cc(-c6ccc(O)cc6)oc45)c3)oc2c1` [ginkgetin], for which, on SARS-CoV-2 3CL^pro [2], the half-inhibitory concentration (IC50) worked out at 2.98 ± 0.86 µM.

Compound `C[C@@H]1C(=O)O[C@H]2C[C@@]34[C@H]5C[C@@H](C(C)(C)C)[C@]36[C@@H](OC(=O)[C@@H]6O)O[C@@]4(C(=O)O5)[C@]21O` [ginkgolide A] displayed a concentration for half-maximal inhibition (IC50) against SARS-CoV-2 3CL^pro [2] greater than 100 µM.

In the case of `CCCCCC/C=C\CCCCCCCc1cccc(O)c1C(=O)O` [GA C15:1], the IC50 at SARS-CoV-2 3CL^pro [2] (pH 7.4) turned out to be 3.45 ± 0.78 µM.

In turn, `COc1cc(O)c2c(=O)cc(-c3ccc(O)cc3)oc2c1` [genkwanin] came in with an IC50 against SARS-CoV-2 3CL^pro [2] of 10.6 ± 1.89 µM.

On SARS-CoV-2 3CL^pro [2], `CC(C)(C)[C@]1(O)CC2OC(=O)CC23C(=O)OC2OC(=O)[C@H](O)C231` (some centres unmarked) [bilobalide] gave an IC50 greater than 100 µM.

In turn, `O=c1cc(-c2ccc(O)c(-c3c(O)cc(O)c4c(=O)cc(-c5ccc(O)cc5)oc34)c2)oc2cc(O)cc(O)c12` [amentoflavone] returned an IC50 against SARS-CoV-2 3CL^pro [2] of 8.65 ± 3.72 µM.

`COc1cc(-c2oc3cc(O)cc(O)c3c(=O)c2O)ccc1O` [isorhamnetin] registered a half-inhibitory concentration (IC50) at SARS-CoV-2 3CL^pro [2] of 31.6 ± 16.6 µM.

Turning to `COc1ccc(-c2cc(=O)c3c(O)cc(O)c(-c4cc(-c5cc(=O)c6c(O)cc(OC)cc6o5)ccc4OC)c3o2)cc1` [sciadopitysin], the Inhibition mode entry at SARS-CoV-2 3CL^pro [1] was “reversible and mixed-inhibition”. The compound further yielded an IC50 against SARS-CoV-2 3CL^pro [2] (3CLpro 4 μg/mL, preincubation 37 °C 40 min, substrate 20 μM, PBS pH 7.4) of 1.09 ± 0.19 µM.
